Among the data in patent US5464838A, “Aminocarboxylic acid derivatives having antiallergic/antiasthmatic effect and a process for their preparation” (Asta Medica Aktiengesellschaft, priority 1992, dated 1995) are ED50 and IC50 values, retold here.

The test system of assay [1] is allergically induced bronchospasm. Description: allergically induced bronchospasm in the guinea pig (modified Konzett-Rossler bronchospasmolysis). The note with it: Cavia porcellus, iv, 0.25 h, test substance intravenously, ovalbumin-triggered bronchial constriction 15 minutes later, read-out: inhibitory effect (ID50) in allergically induced bronchospasm. It counts as in vivo. The source says:
The compounds of the invention are characterized by good antiallergic and antiasthmatic effect.
The test model used to determine these values was a modification of the bronchospasmolysis experiment described by Konzett and Rossler (1).
The animals were narcoticized with urethane (1.5 g/kg i.p.). Trachea and v. jugularis were exposed by means of a skin incision. A tracheal cannula (Our own construction) was fitted to permit the intravenous application of propanolol, ovalbumin and a test substances, and which also permitted artificial respiration (Starling Pump, Braun Melsungen) and measurement of the intratracheal pressure (pressure uptake: Venous Pressure Transducer, Statham, type W 101 connected to a bridge amplifier, Hellige and Multicorder 6-channel ink plotter, Watanabe, type: WA 621-1). The entire preparation was completed after about 15 minutes. During the subsequent experiment the animals were ventilated with 40 breaths per minute and a volume of about 1 ml room air/100 g body weight. The intratracheal pressure was adjusted by this means to 10-15 cm water column. After a habituation phase of about 30 minutes, the test substances were administered intravenously. Propanolol was administered 10 minutes later. […] The resultant increase in intratracheal pressure was recorded on the plotter for at least 15 minutes.

Assay [2] has as its system histamine-precontracted trachea. Description: histamine-precontracted trachea model (after Foster).

Regarding `CNCCC(CCC(=O)O)n1nc(Cc2ccc(Cl)cc2)c2ccccc2c1=O` (stereo not shown) [Example 3, 4-(4-chlorobenzyl)-2-(5-methylamino-1-carboxy-3-pentyl)1(2H) -phthalazinone], the ED50 in assay [1] came out at 9.9 µg/kg. This compound returned an IC50 in assay [2] of 3.86 µM.

Regarding `CNCCCC(CC(=O)O)n1nc(Cc2ccc(Cl)cc2)c2ccccc2c1=O` (stereo not shown) [Example 6, 4-(4-chlorobenzyl)-2-[5-methylamino-1-carboxy-t-2-pentyl]-1(2H) -phthalazinone], the ED50 in assay [1] worked out at 0.8 µg/kg. The compound also came in with an IC50 in assay [2] of 35.5 µM.

By IC50 is commonly meant the concentration needed to halve the response being measured.
